# Source: paper PMC5290327, “SC83288 is a clinical development candidate for the treatment of severe malaria” (Nature Communications, 2017)
# Read-outs that look alike come from different tables or passages of the source.
# Tests used:
# P. falciparum strain K1 = assay: microbe, parasite or virus in culture; format: cell-based; details: Plasmodium falciparum
# P. falciparum strain Dd2 = assay: Growth inhibition assay, asexual blood stages; format: cell-based, Plasmodium falciparum
# [1] = test system: P. falciparum strain Thai19; assay: Growth inhibition assay; format: cell-based; details: Plasmodium falciparum
# P. falciparum strain 3D7 = assay: Growth inhibition assay; format: cell-based; details: Plasmodium falciparum
# [2] = test system: P. falciparum strain FCR3; assay: Growth inhibition assay; format: cell-based; details: Plasmodium falciparum
# P. falciparum strain 7G8 = assay: microbe, parasite or virus in culture; format: cell-based; details: Plasmodium falciparum
# P. falciparum strain D10 = assay: Growth inhibition assay; format: cell-based; details: Plasmodium falciparum
# Solubility in water = details: Supplementary Table 2
# CACO 2 cells = assay: Permeability assay; format: in vitro ADME; details: Supplementary Table 2
# Experimental: The study was conducted by Cyprotex (Macclesfield, United Kingdom). CACO 2 cells (Sigma-Aldrich, catalogue: 86010202) were seeded on Millipore Millicell plates and formed a confluent monolayer over 20 days before the experiment. On day 20, the tested compounds at a final concentration of 10 μM were added to the apical side of the membrane. The transport of the compound across the monolayer was monitored over a 2 h period by liquid chromatography (LC)–MS/MS quantification. The permeability coefficient (Papp) was calculated from the following equation: [drawing 1] , where dQ/dt is the rate of permeation of the drug across the cells, C0 the donor compartment concentration at time zero and A the area of the cell monolayer. C0 was obtained from analysis of the dosing solution at the start of the experiment.
# [3] = In vitro metabolism in liver microsomes; details: Mouse
# Plasmodium berghei = assay: Rodent malaria model; format: in vivo; details: P. berghei, 50 mg kg-1 i.p. 1x4 days
# Experimental: This was the case for both an in vivo 4 day dosing regimen of 30 mg kg^−1 per day and an ex vivo one-cycle growth inhibition assay. […] Differential therapeutic efficacy in various rodent model systems is a well-established phenomenon and is typically associated with charged compounds, such as positively charged amidines and negatively charged phosphoric acid or carboxylic acid containing drugs. The phenomenon is explained based on selective uptake of charged compounds through parasite-induced channels, termed new permeation pathways, in the host cell plasma membrane and species-specific characteristics of the new permeation pathways.
# [4] = In vitro metabolism in liver microsomes; details: Monkey
# [5] = In vitro metabolism in liver microsomes; details: Dog
# [6] = In vitro metabolism in liver microsomes; details: Rat
# [7] = In vitro metabolism in liver microsomes; details: Human
# Plasmodium vinckei = assay: Rodent malaria model; format: in vivo; details: P. vinckei, 30 mg kg-1 i.p. 1x4 days
# Description: The two SC compounds were also active in the Plasmodium vinckei rodent malaria model system.
# [8] = Plasmodium falciparum, DD2, strain Dd2, Supplementary Table 3
# [9] = Supplementary Table 2, read-out: In vitro IC50
compound,measurement,setting,value
OC(c1cc(C(F)(F)F)nc2c(C(F)(F)F)cccc12)C1CCCCN1 (stereo not shown) [Mefloquine],IC50,P. falciparum strain K1,0.01 nM
same,IC50,P. falciparum strain Dd2; [8],0.04 ± 0.1 nM
same,IC50,[1],0.01 nM
same,IC50,P. falciparum strain 3D7,0.04 ± 0.1 nM
same,IC50,[2],0.04 nM
same,IC50,P. falciparum strain 7G8,0.2 ± 0.1 nM
same,IC50,P. falciparum strain D10,0.01 nM
CCN(CC)CCN(C)C(=N)c1cccc(NC(=O)Nc2ccc(S(=O)(=O)NCc3ccc(S(N)(=O)=O)cc3)cc2)c1 [SC82869],Solubility in H2O,Solubility in water,320 µg/mL
same,IC50,P. falciparum strain Dd2; [9],89 nM
N=C(c1cccc(NC(=O)Nc2ccc(S(=O)(=O)NCc3ccc(S(N)(=O)=O)cc3)cc2)c1)N1CCC(O)CC1 [SC77225],Papp,CACO 2 cells,0.38 10-6 cm s-1
same,IC50,P. falciparum strain Dd2; [9],165 nM
CCN(CC)Cc1cc(Nc2ccnc3cc(Cl)ccc23)ccc1O [Amodiaquin],IC50,P. falciparum strain K1,9 ± 1 nM
same,IC50,P. falciparum strain Dd2; [8],7 ± 1 nM
same,IC50,[1],9 ± 1 nM
same,IC50,P. falciparum strain 3D7,8 ± 1 nM
same,IC50,[2],8 ± 0.4 nM
same,IC50,P. falciparum strain 7G8,7 ± 2 nM
same,IC50,P. falciparum strain D10,7 ± 2 nM
C=CNC(=N)c1cccc(NC(=O)Nc2ccc(S(=O)(=O)NCc3ccc(S(N)(=O)=O)cc3)cc2)c1 [SC81458 M30],Share of metabolite from the total combined metabolite peak area,[3]; SC81458 metabolites,1.8%
N=C(N)c1cccc(NC(=O)Nc2ccc(S(=O)(=O)NCc3ccccc3)cc2)c1 [SC08165],Papp,CACO 2 cells,1.22 10-6 cm s-1
same,IC50,P. falciparum strain Dd2; [9],134 nM
same,Outcome,Plasmodium berghei,inactive
CC(C)N1CCN(C(=N)c2cccc(NC(=O)Nc3ccc(S(=O)(=O)NCc4ccc(S(N)(=O)=O)cc4)cc3)c2)CC1 [SC82486],Solubility in H2O,Solubility in water,100 µg/mL
same,Papp,CACO 2 cells,2.50 10-6 cm s-1
same,IC50,P. falciparum strain Dd2; [9],38 nM
N=C(N)c1cccc(NC(=O)Nc2ccc(S(=O)(=O)c3ccc(Br)cc3)cc2)c1 [SC48443],Solubility in H2O,Solubility in water,100 µg/mL
same,IC50,P. falciparum strain Dd2; [9],63.9 nM
N=C(c1cccc(NC(=O)Nc2ccc(S(=O)(=O)NCc3ccc(S(N)(=O)=O)cc3)cc2)c1)N1CCNCC1 [Metabolite 1],IC50,"P. falciparum strain Dd2; major metabolite, read-out: IC50, antiplasmodial activity in vitro",65 nM
same,Share of metabolite from the total combined metabolite peak area,[4]; SC81458 metabolites,10.5%
same,Share of metabolite from the total combined metabolite peak area,[4]; SC83288 metabolites,16.2%
same,Share of metabolite from the total combined metabolite peak area,[3]; SC81458 metabolites,22.2%
same,Share of metabolite from the total combined metabolite peak area,[3]; SC83288 metabolites,5%
same,Share of metabolite from the total combined metabolite peak area,[5]; SC81458 metabolites,63.6%
same,Share of metabolite from the total combined metabolite peak area,[5]; SC83288 metabolites,87.3%
same,Share of metabolite from the total combined metabolite peak area,[6]; SC81458 metabolites,27.8%
same,Share of metabolite from the total combined metabolite peak area,[6]; SC83288 metabolites,19.7%
same,Share of metabolite from the total combined metabolite peak area,[7]; SC81458 metabolites,7%
same,Share of metabolite from the total combined metabolite peak area,[7]; SC83288 metabolites,13.3%
CCN(CC)CCCC(C)Nc1ccnc2cc(Cl)ccc12 (stereo not shown) [Chloroquine],IC50,P. falciparum strain K1,70 ± 14 nM
same,IC50,[1],74 ± 17 nM
same,IC50,P. falciparum strain 3D7,3 nM
same,IC50,[2],25 ± 40 nM
same,IC50,P. falciparum strain 7G8,30 ± 70 nM
same,IC50,P. falciparum strain D10,11 ± 30 nM
CCCCN1CCN(C(=N)c2cccc(NC(=O)Nc3ccc(S(N)(=O)=O)cc3)c2)CC1 [SC81458 M5],Share of metabolite from the total combined metabolite peak area,[4]; SC81458 metabolites,0.1%
same,Share of metabolite from the total combined metabolite peak area,[3]; SC81458 metabolites,49%
same,Share of metabolite from the total combined metabolite peak area,[5]; SC81458 metabolites,3.1%
same,Share of metabolite from the total combined metabolite peak area,[6]; SC81458 metabolites,23.3%
same,Share of metabolite from the total combined metabolite peak area,[7]; SC81458 metabolites,51.4%
CCC(=O)N1CCN(C(=N)c2cccc(NC(=O)Nc3ccc(S(=O)(=O)NCc4ccc(S(N)(=O)=O)cc4)cc3)c2)CC1 [SC83289],Solubility in H2O,Solubility in water,32 µg/mL
same,Papp,CACO 2 cells,1.70 10-6 cm s-1
same,IC50,P. falciparum strain Dd2; [9],1820 nM
N=C(c1cccc(NC(=O)Nc2ccc(S(=O)(=O)NCc3ccc(S(N)(=O)=O)cc3)cc2)c1)N1CCN(CCO)CC1 [SC81452],Solubility in H2O,Solubility in water,32 µg/mL
same,IC50,P. falciparum strain Dd2; [9],100 nM
CCCCC(=O)N1CCN(C(=N)c2cccc(NC(=O)Nc3ccc(S(=O)(=O)NCc4ccc(S(N)(=O)=O)cc4)cc3)c2)CC1 [SC83290],Solubility in H2O,Solubility in water,> 1000 µg/mL
same,IC50,P. falciparum strain Dd2; [9],40 nM
same,Outcome,Plasmodium vinckei,no complete clearance
same,Outcome: decrease of parasitemia,Plasmodium vinckei,> 90%
